“And” between values parts separate entries of the source, which are not always exact repeats. Identical values can stand only once. Inconclusive results and toxic doses are left out. Cut-off read from the data, not from the text of the source: active = T/C of 150% or more; inactive = T/C below 125%.
System: L1210 leukemia ip in BDF1 mice, survival T/C
Experiment: NCI In Vivo Anticancer Drug Screen. Data for tumor model L1210 Leukemia (intraperitoneal) in B6D2F1 (BDF1) mice
Conditions: endpoint: mean survival time, higher = longer survival
Outline: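 Value reflects the ratio of survival in compound-treated mice to survival in vehicle-treated controls, with both groups carrying the same transplanted tumor.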

[1] = dose: 100.0 mg/kg/injection, schedule: Q01DX009 (ip), vehicle: Klucel (hydroxypropylcellulose) (HPC)
[2] = dose: 200.0 mg/kg/injection, schedule: Q01DX009 (ip), vehicle: Klucel (hydroxypropylcellulose) (HPC)
[3] = dose: 400.0 mg/kg/injection, schedule: Q01DX009 (ip), vehicle: Klucel (hydroxypropylcellulose) (HPC)
[4] = dose: 100.0 mg/kg/injection, schedule: Q04DX002 (ip), vehicle: Klucel (hydroxypropylcellulose) (HPC)
[5] = dose: 200.0 mg/kg/injection, schedule: Q04DX002 (ip), vehicle: Klucel (hydroxypropylcellulose) (HPC)
[6] = dose: 400.0 mg/kg/injection, schedule: Q04DX002 (ip), vehicle: Klucel (hydroxypropylcellulose) (HPC)
[7] = dose: 100.0 mg/kg/injection, schedule: Q01DX009 (ip), vehicle: saline with Tween-80
[8] = dose: 100.0 mg/kg/injection, schedule: Q04DX003 (ip), vehicle: saline with Tween-80
[9] = dose: 200.0 mg/kg/injection, schedule: Q01DX009 (ip), vehicle: saline with Tween-80
[10] = dose: 200.0 mg/kg/injection, schedule: Q04DX003 (ip), vehicle: saline with Tween-80
[11] = dose: 400.0 mg/kg/injection, schedule: Q04DX003 (ip), vehicle: saline with Tween-80
[12] = dose: 100.0 mg/kg/injection, schedule: Q01DX001 (ip), vehicle: saline
[13] = dose: 200.0 mg/kg/injection, schedule: Q01DX001 (ip), vehicle: saline
[14] = dose: 400.0 mg/kg/injection, schedule: Q01DX001 (ip), vehicle: saline
[15] = dose: 100.0 mg/kg/injection, schedule: Q04DX003 (ip), vehicle: Klucel (hydroxypropylcellulose) (HPC)
[16] = dose: 200.0 mg/kg/injection, schedule: Q04DX003 (ip), vehicle: Klucel (hydroxypropylcellulose) (HPC)
[17] = dose: 400.0 mg/kg/injection, schedule: Q04DX003 (ip), vehicle: Klucel (hydroxypropylcellulose) (HPC)
[18] = dose: 100.0 mg/kg/injection, schedule: Q04DX003 (ip), vehicle: saline
[19] = dose: 200.0 mg/kg/injection, schedule: Q04DX003 (ip), vehicle: saline
[20] = dose: 400.0 mg/kg/injection, schedule: Q04DX003 (ip), vehicle: saline
[21] = dose: 50.0 mg/kg/injection, schedule: Q01DX009 (ip), vehicle: saline with Tween-80
[22] = dose: 25.0 mg/kg/injection, schedule: Q04DX002 (ip), vehicle: saline

Measured: T/C

Cc1cc(C)c([N+](=O)[O-])c(N)n1
inactive: dose: 100.0 mg/kg/injection, schedule: Q01DX001 (ip), vehicle: Klucel (hydroxypropylcellulose) (HPC) 102 % of control | [1] 102 % of control | dose: 200.0 mg/kg/injection, schedule: Q01DX001 (ip), vehicle: Klucel (hydroxypropylcellulose) (HPC) 105 % of control | [2] 101 % of control | dose: 400.0 mg/kg/injection, schedule: Q01DX001 (ip), vehicle: Klucel (hydroxypropylcellulose) (HPC) 100 % of control | [3] 103 % of control

O=C(c1ccc2ccccc2c1)c1cccc(F)c1C(=O)O (tested in a mixture with another compound)
inactive: dose: 75.0 mg/kg/injection, schedule: Q01DX001 (ip), vehicle: carboxymethylcellulose (CMC) 95 % of control | dose: 150.0 mg/kg/injection, schedule: Q01DX001 (ip), vehicle: carboxymethylcellulose (CMC) 90 % of control

O=C(Oc1ccc(S(=O)(=O)F)cc1Cl)c1ccc(Cl)cc1
inactive: [4] 92 % of control | [5] 89 % of control | [6] 89 % of control

O=S(=O)(O)/[N+]([O-])=N/O
inactive: dose: 100.0 mg/kg/injection, schedule: Q04DX003 (ip), vehicle: saline sonified 94 % of control | dose: 200.0 mg/kg/injection, schedule: Q04DX003 (ip), vehicle: saline sonified 100 % of control | dose: 400.0 mg/kg/injection, schedule: Q04DX003 (ip), vehicle: saline sonified 95 % of control

NC(=NC1CCC(C2CCC(N)CC2)CC1)C(N)=NC1CCC(C2CCC(N)CC2)CC1 (centres undefined)
inactive: [7] 98 % of control | [8] 100 % of control | [9] 98 % of control | [10] 91 % of control | dose: 400.0 mg/kg/injection, schedule: Q01DX009 (ip), vehicle: saline with Tween-80 98 % of control | [11] 95 % of control

CC1(C)N=C(N)N=C(N)N1c1ccc(OCC(=O)Nc2cccc(S(=O)(=O)F)c2)cc1
inactive: [12] 105 % of control | [13] 91 % of control | [14] 107 % of control

O=[N+]([O-])CC(C[N+](=O)[O-])C(F)(F)C(F)(F)C(F)(F)F
inactive: dose: 100.0 mg/kg/injection, schedule: Q01DX001 (ip), vehicle: other 101 % of control

COc1ccc2c(c1)C=Cc1ccc(Cl)cc1N2
inactive: [1] 97 % of control | [15] 98 % of control | [2] 94 % of control | [16] 101 % of control | [3] 94 % of control | [17] 104 % of control

COc1ccc(COC2C(O)C(CO)OC2n2ccc(N)nc2=O)cc1 (centres undefined)
inactive: dose: 12.5 mg/kg/injection, schedule: Q01DX005 (ip), vehicle: saline 103 % of control | dose: 25.0 mg/kg/injection, schedule: Q01DX005 (ip), vehicle: saline 100 % of control | dose: 50.0 mg/kg/injection, schedule: Q01DX005 (ip), vehicle: saline 94 % of control | dose: 100.0 mg/kg/injection, schedule: Q01DX005 (ip), vehicle: saline 107 % of control

CN(C(=O)c1ccccc1C(=O)N(C)c1ccccc1)c1ccccc1
inactive: [12] 109 % of control | [13] 109 % of control | [14] 97 % of control

CC1=CCC(C(C)C)C=C1 (centres undefined)
inactive: dose: 25.0 mg/kg/injection, schedule: Q01DX009 (ip), vehicle: Klucel (hydroxypropylcellulose) (HPC) 101 % of control | dose: 50.0 mg/kg/injection, schedule: Q01DX009 (ip), vehicle: Klucel (hydroxypropylcellulose) (HPC) 96 % of control | [1] 102 % of control | dose: 100.0 mg/kg/injection, schedule: Q01DX009 (ip), vehicle: saline 93 % of control | [18] 96 % of control | [2] 96 % of control | [19] 98 % of control | [20] 97 % of control

COc1ccc(Oc2cccc3cnccc23)cc1
inactive: [4] 102 % of control | [5] 91 % of control | [6] 94 % of control

COCC1=CC(=O)CCC1CC1OC1(C)C (centres undefined)
inactive: [21] 96 % of control | [7] 96 % of control | [9] 96 % of control

CC1CCC2(O)C3(C)CC4(O)OC2(C1O)C1(O)C3(O)C(OC(=O)c2ccc[nH]2)C(O)(C(C)C)C41C (centres undefined)
inactive: dose: 0.25 mg/kg/injection, schedule: Q01DX001 (ip), vehicle: carboxymethylcellulose (CMC) 93 % of control

COc1ccc(OC(=O)Nc2ccccc2OC)cc1
inactive: [1] 97 % of control | [15] 98 % of control | [2] 100 % of control | [16] 96 % of control | [3] 95 % of control | [17] 95 % of control

COc1cc(Cl)ccc1NC(=S)Nc1ccccc1
inactive: [4] 97 % of control | [5] 101 % of control | [6] 97 % of control

COC(C)c1nnnn1C (centres undefined)
inactive: [8] 97 % of control | [10] 98 % of control | [11] 101 % of control

CCC(CC)N=C(N)N
inactive: [18] 93 % of control

CC(O)C1OC1C(C)O (centres undefined)
inactive: [22] 93 % of control | dose: 50.0 mg/kg/injection, schedule: Q04DX002 (ip), vehicle: saline 101 % of control | dose: 100.0 mg/kg/injection, schedule: Q04DX002 (ip), vehicle: saline 112 % of control

O=C1C(O)=C(Cl)C(=O)C(O)=C1Cl
inactive: [7] 106 % of control | [18] 114 % of control | [9] 95 % of control | [19] 120 % of control | [20] 116 % of control

CC1(N=C(N)CSSCC(N)=NC2(C)CCC(C(C)(C)C)CC2)CCC(C(C)(C)C)CC1 (centres undefined)
inactive: dose: 0.7 mg/kg/injection, schedule: Q01DX009 (ip), vehicle: other 93 % of control and 96 % of control | dose: 1.0 mg/kg/injection, schedule: Q01DX001 (ip), vehicle: other 107 % of control | dose: 1.0 mg/kg/injection, schedule: Q01DX009 (ip), vehicle: other 101 % of control and 103 % of control | dose: 1.56 mg/kg/injection, schedule: Q01DX009 (ip), vehicle: other 97 % of control and 101 % of control | dose: 2.0 mg/kg/injection, schedule: Q01DX001 (ip), vehicle: other 105 % of control | dose: 2.35 mg/kg/injection, schedule: Q01DX009 (ip), vehicle: other 105 % of control and 90 % of control | dose: 3.12 mg/kg/injection, schedule: Q01DX009 (ip), vehicle: carboxymethylcellulose (CMC) 112 % of control | dose: 4.0 mg/kg/injection, schedule: Q01DX001 (ip), vehicle: other 111 % of control | dose: 5.0 mg/kg/injection, schedule: Q04DX003 (ip), vehicle: other 95 % of control | dose: 6.25 mg/kg/injection, schedule: Q01DX009 (ip), vehicle: carboxymethylcellulose (CMC) 102 % of control | dose: 6.25 mg/kg/injection, schedule: Q01DX009 (ip), vehicle: other 98 % of control | dose: 10.0 mg/kg/injection, schedule: Q04DX003 (ip), vehicle: other 105 % of control | dose: 12.5 mg/kg/injection, schedule: Q01DX009 (ip), vehicle: other 102 % of control | dose: 12.5 mg/kg/injection, schedule: Q04DX002 (ip), vehicle: other 104 % of control and 90 % of control | dose: 25.0 mg/kg/injection, schedule: Q04DX002 (ip), vehicle: carboxymethylcellulose (CMC) 102 % of control and 112 % of control

O=c1cc(NCc2ccccc2[N+](=O)[O-])[nH]c(=O)[nH]1
inactive: [12] 95 % of control | [13] 100 % of control | [14] 98 % of control

COc1cc(/C=N/NC(=O)CNC(=O)NCc2ccccc2)ccc1O
inactive: [21] 92 % of control | [7] 95 % of control

CCC[CH2][Sn]([C]#[C][Sn]([CH2]CCC)([CH2]CCC)[CH2]CCC)([CH2]CCC)[CH2]CCC
inactive: dose: 0.39 mg/kg/injection, schedule: Q01DX009 (ip), vehicle: saline 94 % of control | dose: 0.78 mg/kg/injection, schedule: Q01DX009 (ip), vehicle: saline 94 % of control | dose: 1.56 mg/kg/injection, schedule: Q01DX009 (ip), vehicle: saline 97 % of control and 102 % of control | dose: 6.25 mg/kg/injection, schedule: Q01DX009 (ip), vehicle: Klucel (hydroxypropylcellulose) (HPC) 88 % of control | [22] 94 % of control

O=C(Cc1ccc([N+](=O)[O-])cc1)NCCc1ccc2c(c1)OCO2
inactive: [12] 96 % of control | [13] 102 % of control | [14] 100 % of control

COc1cc(OC)c2c(C)c(C#N)oc2c1
inactive: [15] 97 % of control | [16] 97 % of control | [17] 98 % of control

Source: PubChem BioAssay AID248 (DTP/NCI, 2004)
